Measurements as given in article PMC10763615, “Identification and engineering of potent cyclic peptides with selective or promiscuous binding through biochemical profiling and bioinformatic data analysis” (RSC Chemical Biology, 2023).
Read-outs that look alike come from different tables or passages of the source. Positions of bridges follow the written chain, without caps; N, C: chain ends. Residues, ends and D or L forms follow the SMILES beside them.

Tests used:
FGF-R1C ECD [1] = biological target: T1, FGF-R1C ECD (Homo sapiens, UniProt P11362); assay: biochemical
T1 sequence (P11362 22-376 limits assumed): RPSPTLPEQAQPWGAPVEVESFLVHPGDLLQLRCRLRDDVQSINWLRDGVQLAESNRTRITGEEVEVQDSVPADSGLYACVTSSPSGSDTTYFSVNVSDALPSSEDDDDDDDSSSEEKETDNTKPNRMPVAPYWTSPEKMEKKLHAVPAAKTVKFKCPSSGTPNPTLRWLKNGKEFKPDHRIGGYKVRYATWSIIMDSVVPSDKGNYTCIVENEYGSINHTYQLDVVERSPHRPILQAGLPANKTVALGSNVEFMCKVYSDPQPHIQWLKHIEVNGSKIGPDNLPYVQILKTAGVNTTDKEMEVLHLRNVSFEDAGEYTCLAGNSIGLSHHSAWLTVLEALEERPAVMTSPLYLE
Experimental: (§1) KD affinity binding measurements were obtained by biolayer interferometry (BLI) instruments (Fortebio Octet HTX, or Sartorius Octet RH16 using either 8 or 16 channel mode.
(§2) For single concentration binding experiments, 50 μM peptide stocks in folding buffer were diluted 1:50 in mRNA display selection buffer (PBS pH7.4 supplemented with 0.05% Tween-20 and 0.01% BSA) in either a 96 well black plate, or a 384 well tilted bottom microplate (ForteBio). Biotinylated FGF-R protein was loaded onto Streptavidin-functionalised biosensors (ForteBio) and immersed into ~1 μM peptide to obtain association kinetics curves. Dissociation kinetics curves were obtained by subsequent immersion of ligand-associated loaded sensors into a 1:50 dilution of folding buffer in mRNA display selection buffer. Fitted KD data was adjusted for concentration as determined by UPLC-CAD.
(§3) For accurate multi-concentration KD determination, dilution series of each peptide were made, and association and dissociation kinetics curves were obtained as above for each concentration to fit a multi-point KD binding model. Data collection and analysis was performed using the Octet Instrument Control […]
(§4) concentration assay kinetics curves shown in supplementary Figure S 19-24.

FGF-R3C ECD [2] = biological target: T2, FGF-R3C ECD (Homo sapiens, UniProt P22607); assay: biochemical
T2 sequence (P22607 23-375 limits assumed): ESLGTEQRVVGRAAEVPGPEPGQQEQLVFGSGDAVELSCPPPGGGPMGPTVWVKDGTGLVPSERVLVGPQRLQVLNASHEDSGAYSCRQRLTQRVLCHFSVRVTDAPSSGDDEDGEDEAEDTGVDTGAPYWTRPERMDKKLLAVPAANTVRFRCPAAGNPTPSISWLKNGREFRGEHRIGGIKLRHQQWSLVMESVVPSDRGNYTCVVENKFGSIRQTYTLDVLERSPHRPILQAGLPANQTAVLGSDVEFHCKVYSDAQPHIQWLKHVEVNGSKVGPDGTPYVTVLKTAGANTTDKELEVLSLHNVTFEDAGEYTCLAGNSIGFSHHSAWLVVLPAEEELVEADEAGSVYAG
Experimental: as §1, §2, §3, §4

FGF-R4 ECD [3] = biological target: T3, FGF-R4 ECD (Homo sapiens, UniProt P22455); assay: multi-concentration BLI of purified peptides; format: binding; conditions: purified trimer-18 library peptides
T3 construct: DNA constructs for the extracellular domain (ECD) of human FGF-; HPC4 (C); made in house; host or cells: HEK 293-6E
T3 sequence (P22455 22-369 limits assumed): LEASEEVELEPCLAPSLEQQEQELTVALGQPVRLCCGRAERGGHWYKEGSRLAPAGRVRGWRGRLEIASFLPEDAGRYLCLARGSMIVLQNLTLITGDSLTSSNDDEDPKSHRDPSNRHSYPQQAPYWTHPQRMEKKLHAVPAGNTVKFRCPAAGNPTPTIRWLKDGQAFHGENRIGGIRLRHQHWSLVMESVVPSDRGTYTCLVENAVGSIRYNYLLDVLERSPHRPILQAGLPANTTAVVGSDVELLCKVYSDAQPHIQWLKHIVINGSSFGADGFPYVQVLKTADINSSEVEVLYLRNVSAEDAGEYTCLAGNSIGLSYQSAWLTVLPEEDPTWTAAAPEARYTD
Experimental: as §1, §2, §3, §4

FGF-R4 ECD [4] = biological target: T3, FGF-R4 ECD; assay: single concentration BLI of crude peptides; format: binding; conditions: read-out: KD (4)
How it was run: (§5)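 Streptavidin biosensors carrying biotinylated FGF receptor ECD were immersed in peptide (~1 μM for crude single-point runs, a concentration series for purified peptides) and then in peptide-free buffer. KD was obtained by fitting the BLI association and dissociation curves.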

FGF-R1C ECD [5] = biological target: T1, FGF-R1C ECD; assay: biochemical; format: binding; set-up: DNA constructs for the extracellular domain (ECD) of human FGF-; HPC4 (C); made in house; host or cells: HEK 293-6E
How it was run: as §5

FGF-R3C ECD [6] = biological target: T2, FGF-R3C ECD; assay: biochemical; format: binding; set-up: DNA constructs for the extracellular domain (ECD) of human FGF-; HPC4 (C); made in house; host or cells: HEK 293-6E
How it was run: as §5

[7] = crude NNK peptides, single concentration BLI (Table S3)

SMILES: CSCC[C@H](NC(C)=O)C(=O)N[C@H]1CSSC[C@@H](C(=O)NCC(=O)N[C@@H](CO)C(=O)NCC(=O)N[C@@H](CO)C(=O)N[C@@H](CC(=O)O)C(=O)N[C@@H](Cc2ccc(O)cc2)C(=O)N[C@@H](CCCCN)C(=O)N[C@@H](CC(=O)O)C(=O)N[C@@H](CC(=O)O)C(=O)N[C@@H](CC(=O)O)C(=O)N[C@@H](CC(=O)O)C(=O)N[C@@H](CCCCN)C(N)=O)NC(=O)[C@H](CCCNC(=N)N)NC(=O)[C@H](CCCNC(=N)N)NC(=O)[C@H](Cc2c[nH]cn2)NC(=O)[C@H](CO)NC(=O)[C@H](CC(C)C)NC(=O)[C@H](CC(C)C)NC(=O)[C@H](Cc2ccc(O)cc2)NC(=O)[C@H](Cc2ccc(O)cc2)NC(=O)[C@H](Cc2ccc(O)cc2)NC(=O)[C@H](CC(C)C)NC(=O)[C@H](Cc2c[nH]cn2)NC(=O)[C@H](CCC(=O)O)NC1=O [4.23]
- Kd (FGF-R1C ECD [1]): > 1000 nM
- Kd (FGF-R3C ECD [2]): > 1000 nM
- Kd (FGF-R4 ECD [3]): 3 nM

SMILES: CC[C@H](C)[C@@H]1NC(=O)[C@H](Cc2ccccc2)NC(=O)[C@H](CCCCN)NC(=O)[C@H](CC(N)=O)NC(=O)[C@H](Cc2ccc(O)cc2)NC(=O)[C@@H](NC(=O)[C@H](CCSC)NC(C)=O)CSSC[C@@H](C(=O)NCC(=O)N[C@@H](CO)C(=O)NCC(=O)N[C@@H](CO)C(=O)N[C@@H](CC(=O)O)C(=O)N[C@@H](Cc2ccc(O)cc2)C(=O)N[C@@H](CCCCN)C(=O)N[C@@H](CC(=O)O)C(=O)N[C@@H](CC(=O)O)C(=O)N[C@@H](CC(=O)O)C(=O)N[C@@H](CC(=O)O)C(=O)N[C@@H](CCCCN)C(N)=O)NC(=O)[C@H](Cc2ccc(O)cc2)NC(=O)[C@H](CC(C)C)NC(=O)[C@H](C(C)C)NC(=O)[C@H](CCCCN)NC(=O)[C@H](Cc2ccc(O)cc2)NC(=O)[C@H](CC(C)C)NC(=O)[C@H]([C@@H](C)O)NC1=O [4.19]
- Kd (FGF-R1C ECD [1]): > 1000 nM
- Kd (FGF-R3C ECD [2]): > 1000 nM
- Kd (FGF-R4 ECD [3]): 790 nM

SMILES: CSCC[C@H](NC(C)=O)C(=O)N[C@H]1CSSC[C@@H](C(=O)NCC(=O)N[C@@H](CO)C(=O)NCC(=O)N[C@@H](CO)C(=O)N[C@@H](CC(=O)O)C(=O)N[C@@H](Cc2ccc(O)cc2)C(=O)N[C@@H](CCCCN)C(=O)N[C@@H](CC(=O)O)C(=O)N[C@@H](CC(=O)O)C(=O)N[C@@H](CC(=O)O)C(=O)N[C@@H](CC(=O)O)C(=O)N[C@@H](CCCCN)C(N)=O)NC(=O)[C@H](Cc2c[nH]c3ccccc23)NC(=O)[C@H](CC(C)C)NC(=O)[C@H](CC(C)C)NC(=O)[C@H](Cc2ccc(O)cc2)NC(=O)[C@H](Cc2ccc(O)cc2)NC(=O)[C@H](Cc2ccccc2)NC(=O)[C@H](CC(C)C)NC(=O)[C@H](C(C)C)NC(=O)[C@H](CCCCN)NC(=O)[C@H](CCCCN)NC(=O)[C@H](CC(N)=O)NC(=O)[C@H](CCC(=O)O)NC1=O [4.20]
- Kd (FGF-R1C ECD [1]): > 1000 nM
- Kd (FGF-R3C ECD [2]): > 1000 nM
- Kd (FGF-R4 ECD [3]): 321 nM

SMILES: CSCC[C@H](NC(C)=O)C(=O)N[C@H]1CSSC[C@@H](C(=O)NCC(=O)N[C@@H](CO)C(=O)NCC(=O)N[C@@H](CO)C(=O)N[C@@H](CC(=O)O)C(=O)N[C@@H](Cc2ccc(O)cc2)C(=O)N[C@@H](CCCCN)C(=O)N[C@@H](CC(=O)O)C(=O)N[C@@H](CC(=O)O)C(=O)N[C@@H](CC(=O)O)C(=O)N[C@@H](CC(=O)O)C(=O)N[C@@H](CCCCN)C(N)=O)NC(=O)[C@H](CCC(N)=O)NC(=O)[C@H](CCCCN)NC(=O)[C@H](Cc2ccccc2)NC(=O)[C@H](CC(C)C)NC(=O)[C@H](CC(C)C)NC(=O)[C@H](Cc2ccc(O)cc2)NC(=O)[C@H](Cc2ccc(O)cc2)NC(=O)[C@H](Cc2ccc(O)cc2)NC(=O)[C@H](CC(C)C)NC(=O)[C@H](Cc2c[nH]cn2)NC(=O)[C@H](CCCCN)NC(=O)[C@H](CC(N)=O)NC1=O [4.25]
- Kd (FGF-R1C ECD [1]): > 1000 nM
- Kd (FGF-R3C ECD [2]): > 1000 nM
- Kd (FGF-R4 ECD [3]): 3 nM

SMILES: CSCC[C@H](NC(C)=O)C(=O)N[C@H]1CSSC[C@@H](C(=O)NCC(=O)N[C@@H](CO)C(=O)NCC(=O)N[C@@H](CO)C(=O)N[C@@H](CC(=O)O)C(=O)N[C@@H](Cc2ccc(O)cc2)C(=O)N[C@@H](CCCCN)C(=O)N[C@@H](CC(=O)O)C(=O)N[C@@H](CC(=O)O)C(=O)N[C@@H](CC(=O)O)C(=O)N[C@@H](CC(=O)O)C(=O)N[C@@H](CCCCN)C(N)=O)NC(=O)[C@H](CCCCN)NC(=O)[C@H](CC(C)C)NC(=O)[C@H](C(C)C)NC(=O)[C@H](CC(C)C)NC(=O)[C@H](CCC(=O)O)NC(=O)[C@@H]2CCCN2C(=O)[C@H](CCSC)NC(=O)[C@H](Cc2ccccc2)NC(=O)[C@H](Cc2c[nH]c3ccccc23)NC(=O)[C@H](Cc2c[nH]c3ccccc23)NC1=O (Ac-MCWWFMPELVLKCGSGSDYKDDDDK-NH2; disulfide 2-13)
- Kd (FGF-R4 ECD [4]; [7]): > 10000 nM
- Kd (FGF-R1C ECD [5]): > 10000 nM
- Kd (FGF-R3C ECD [6]): > 10000 nM

SMILES: CSCC[C@H](NC(C)=O)C(=O)N[C@H]1CSSC[C@@H](C(=O)NCC(=O)N[C@@H](CO)C(=O)NCC(=O)N[C@@H](CO)C(=O)N[C@@H](CC(=O)O)C(=O)N[C@@H](Cc2ccc(O)cc2)C(=O)N[C@@H](CCCCN)C(=O)N[C@@H](CC(=O)O)C(=O)N[C@@H](CC(=O)O)C(=O)N[C@@H](CC(=O)O)C(=O)N[C@@H](CC(=O)O)C(=O)N[C@@H](CCCCN)C(N)=O)NC(=O)[C@H](CCCCN)NC(=O)[C@H](CCCNC(=N)N)NC(=O)[C@H](Cc2c[nH]cn2)NC(=O)[C@H](C(C)C)NC(=O)[C@H](CC(C)C)NC(=O)[C@H](CCC(N)=O)NC(=O)[C@H](Cc2ccc(O)cc2)NC(=O)[C@H](Cc2ccc(O)cc2)NC(=O)[C@H](CCCCN)NC(=O)[C@H](C(C)C)NC(=O)[C@H](Cc2c[nH]c3ccccc23)NC(=O)[C@H](CCCNC(=N)N)NC1=O (Ac-MCRWVKYYQLVHRKCGSGSDYKDDDDK-NH2; disulfide 2-15)
- Kd (FGF-R4 ECD [4]; crude T18 selection 1 (1:1:1) peptides, single concentration BLI (Table S4)): 1 nM
- Kd (FGF-R1C ECD [5]): > 10000 nM
- Kd (FGF-R3C ECD [6]): > 10000 nM

SMILES: CSCC[C@H](NC(C)=O)C(=O)N[C@H]1CSSC[C@@H](C(=O)NCC(=O)N[C@@H](CO)C(=O)NCC(=O)N[C@@H](CO)C(=O)N[C@@H](CC(=O)O)C(=O)N[C@@H](Cc2ccc(O)cc2)C(=O)N[C@@H](CCCCN)C(=O)N[C@@H](CC(=O)O)C(=O)N[C@@H](CC(=O)O)C(=O)N[C@@H](CC(=O)O)C(=O)N[C@@H](CC(=O)O)C(=O)N[C@@H](CCCCN)C(N)=O)NC(=O)[C@H]([C@@H](C)O)NC(=O)[C@H](CCSC)NC(=O)[C@H](CC(C)C)NC(=O)[C@H](CCCNC(=N)N)NC(=O)[C@H](Cc2c[nH]c3ccccc23)NC(=O)[C@H](CC(C)C)NC(=O)[C@H](CC(C)C)NC(=O)[C@H](Cc2ccccc2)NC(=O)[C@H](Cc2ccc(O)cc2)NC(=O)[C@H](CCCCN)NC(=O)[C@@H]2CCCN2C1=O (Ac-MCPKYFLLWRLMTCGSGSDYKDDDDK-NH2; disulfide 2-14)
- Kd (FGF-R4 ECD [4]; [7]): 1840 nM
- Kd (FGF-R1C ECD [5]): > 10000 nM
- Kd (FGF-R3C ECD [6]): > 10000 nM
